# Laboratory results taken from US8252781B2, “1,2-diazetidin-3-one derivatives and drugs containing same” (Kowa Company, Ltd., priority 2008, dated 2012).
# What was measured:
# Format in all cases: biochemical
# mouse 11β-HSD1 = molecular target: T1, mouse 11β-HSD1 (Mus musculus, UniProt P50172); test: Enzyme inhibitory activity, mouse 11β-HSD1 (lysate of stably expressing CHO-K1 cells, cortisol by competitive ELISA); conditions: Table 2; mouse 11β-HSD1, cell lysate, 37° C. for 1 hour; read-out: m HSD1 in vitro assay (IC50 uM)
# T1 construct: The obtained PCR products of about 0.9 kbp, 1.2 kbp, and 0.9 kbp were subcloned into an expression vector pcDNA3.1+/Zeo; expressed in transfected cells
# T1 sequence (P50172 whole entry): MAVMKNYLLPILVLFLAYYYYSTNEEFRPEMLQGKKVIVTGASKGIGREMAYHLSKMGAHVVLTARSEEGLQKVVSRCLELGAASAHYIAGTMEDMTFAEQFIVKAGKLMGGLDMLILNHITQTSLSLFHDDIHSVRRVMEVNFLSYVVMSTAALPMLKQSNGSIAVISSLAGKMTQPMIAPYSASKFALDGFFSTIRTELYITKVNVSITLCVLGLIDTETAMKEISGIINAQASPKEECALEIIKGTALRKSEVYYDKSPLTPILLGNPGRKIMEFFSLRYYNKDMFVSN
# Method in brief: (§1)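 Sonicated lysates of stably transfected cells (diluted to 0.1–0.4 mg/mL before addition) reacted for 1 h at 37 °C in pH 7.4 Tris/sucrose/EGTA/EDTA/MgCl2 buffer with 100 nmol/L cortisone or cortisol and 400 μmol/L NADPH or NAD+, then were heat-stopped at 95 °C. Inhibition rate = 100 minus residual activity.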
# human 11β-HSD1 = molecular target: T2, human 11β-HSD1 (Homo sapiens, UniProt P28845); test: Enzyme inhibitory activity, human 11β-HSD1 (lysate of stably expressing HEK293 cells, cortisol by competitive ELISA); conditions: Table 1; human 11β-HSD1, cell lysate, 37° C. for 1 hour; read-out: h HSD1 in vitro assay (IC50 uM)
# T2 construct: The obtained PCR products of about 0.9 kbp, 1.2 kbp, and 0.9 kbp were subcloned into an expression vector pcDNA3.1+/Zeo; expressed in transfected cells
# T2 sequence (P28845 whole entry): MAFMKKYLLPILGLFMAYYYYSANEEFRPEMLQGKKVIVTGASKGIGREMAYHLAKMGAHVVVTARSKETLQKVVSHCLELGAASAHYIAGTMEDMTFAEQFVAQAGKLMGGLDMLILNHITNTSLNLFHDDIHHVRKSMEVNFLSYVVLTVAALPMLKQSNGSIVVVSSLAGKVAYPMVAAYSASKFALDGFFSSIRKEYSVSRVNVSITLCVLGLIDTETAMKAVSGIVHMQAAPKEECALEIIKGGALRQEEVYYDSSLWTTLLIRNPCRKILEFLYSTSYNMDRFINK
# Method in brief: as §1
# human 11β-HSD2 = molecular target: T3, human 11β-HSD2 (Homo sapiens, UniProt P80365); test: Enzyme inhibitory activity, human 11β-HSD2 (lysate of stably expressing HEK293 cells, cortisol by competitive ELISA); conditions: Table 1; human 11β-HSD2, cell lysate, 37° C. for 1 hour; read-out: h HSD2 in vitro assay (IC50 uM)
# T3 construct: The obtained PCR products of about 0.9 kbp, 1.2 kbp, and 0.9 kbp were subcloned into an expression vector pcDNA3.1+/Zeo; expressed in transfected cells
# T3 sequence (P80365 1-405): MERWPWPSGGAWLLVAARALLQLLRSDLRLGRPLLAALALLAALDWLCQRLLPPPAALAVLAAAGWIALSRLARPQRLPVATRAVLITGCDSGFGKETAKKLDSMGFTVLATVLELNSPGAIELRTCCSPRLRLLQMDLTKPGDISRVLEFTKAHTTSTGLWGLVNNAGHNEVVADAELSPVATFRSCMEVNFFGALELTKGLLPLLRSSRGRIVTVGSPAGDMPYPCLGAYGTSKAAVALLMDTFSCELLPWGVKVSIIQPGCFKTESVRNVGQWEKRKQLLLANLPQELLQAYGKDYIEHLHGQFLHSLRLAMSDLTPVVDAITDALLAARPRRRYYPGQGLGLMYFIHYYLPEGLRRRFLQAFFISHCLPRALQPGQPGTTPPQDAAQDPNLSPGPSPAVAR
# Protocol: 1. Human 11β-HSD1-, Human 11β-HSD2- and Mouse 11β-HSD1-Gene Clonings and Establishment of Stably Expressing Cells
# Human 11β-HSD1-, human 11β-HSD2-, and mouse 11β-HSD1-gene clonings were conducted using as a template a reverse transcription product of human-liver RNA, human-kidney RNA (CELL APPLICATIONS), and mouse-kidney RNA respectively, by means of PCR cloning with reference to nucleotide sequences of Genbank Accession Nos. NM_005525, NM_000196, and NM_008288. The obtained PCR products of about 0.9 kbp, 1.2 kbp, and 0.9 kbp were subcloned into an expression vector pcDNA3.1+/Zeo (Invitrogen).
# Human 11β-HSD1- and human 11β-HSD2-expressing vectors were transfected into human kidney-derived cell line, HEK293 cells, using a transfection reagent, jet PEI (Funakoshi). Mouse 11β-HSD1 was transfected to Chinese hamster ovary-derived cell line, CHO-K1 cells. Selection was conducted with 200-400 μg/mL of zeocine (Invitrogen) to provide stably expressing-cell clones. The stably expressing cells were suspended in buffer solution A (20 mmol/L Tris-HCl, pH 7.4, 250 mmol/L sucrose, 1 mmol/L EGTA, 1 mmol/L EDTA, 1 mmol/L MgCl2), sonicated, and then stored at −80° C.
# 2. Assay of Enzyme Inhibitory Activity
# An enzymatic reaction was conducted using a polystyrene 96-well plate. Each well was added with 1 μL of a test agent dissolved in DMSO and then diluted (0.003 to 3 mmol/L), and further added with 10 μL of cell lysate diluted to a concentration of 0.1 mg/mL to 0.4 mg/mL. Next, 90 μL of buffer solution A containing substrate (100 nmol/L cortisone or cortisol) and coenzyme (400 μmol/L NADPH or NAD+) was added and the mixture was incubated at 37° C. for 1 hour. The enzymatic reaction was stopped by treating at 95° C. for 3 minutes. Cortisol that was present in the reaction solution was determined by a competitive ELISA shown below.
# Anti-rabbit IgG antibody (Chemi-con) diluted to 2 μg/mL with carbonate buffer solution (pH 9.6) was added in 100 μL each to a 96-well immuno plate (Nunc) and immobilized by an incubation at 4° C. overnight. 50 μL of enzymatic reaction solution was put onto the plates, and further, anti-cortisol antibody (Cosmo Bio) and HRP-labeled cortisol (Cosmo Bio), diluted with buffer solution B (25 mmol/L Tris-HCl pH 7.4, 137 mmol/L NaCl, 2.68 mmol/L KCl), were added in 50 μL respectively and incubated at 4° C. overnight. After washed three times with buffer solution B containing 0.05% Tween 20, the plates were allowed to develop color by adding 100 μL of color reagent, TMB (Moss). The color reaction was stopped by 25 μL of 1 mol/L sulfuric acid and the absorbance was determined at 450 nm with a microplate reader (Molecular Device, VersaMax).
# The values of human 11β-HSD1, human 11β-HSD2, and mouse 11β-HSD1 activities were subtracted from 100, and the resultant values were regarded as the respective 11β-HSD inhibition rates of example compounds. […] The comparison of human 11β-HSD1 and human 11β-HSD2 inhibiting activities is shown in Table 1, and the comparison of human 11β-HSD1 and mouse 11β-HSD1 inhibiting activities is shown in Table 2.
Compound,IC50 (mouse 11β-HSD1),IC50 (human 11β-HSD1),IC50 (human 11β-HSD2)
"CC1(C)C(=O)N(C2C3CC4CC(C3)CC2C4)N1Cc1ccccc1Br (centres unmarked) [Example 39, 1-(2-bromobenzyl)-4,4-dimethyl-2-(adamantan-2-yl)-1,2-diazetidin-3-one]",0.04 µM,0.015 µM,3 µM
"CC1(C)C(=O)N(C2C3CC4CC(C3)CC2C4)N1Cc1ccccc1I (centres unmarked) [Example 40, 1-(2-iodobenzyl)-4,4-dimethyl-2-(adamantan-2-yl)-1,2-diazetidin-3-one]",0.084 µM,0.012 µM,10 µM
"CC1(C)C(=O)N(C2C3CC4CC(C3)CC2C4)N1Cc1cc(F)ccc1Cl (centres unmarked) [Example 41, 1-(2-chloro-5-fluorobenzyl)-4,4-dimethyl-2-(adamantan-2-yl)-1,2-diazetidin-3-one]",0.13 µM,0.023 µM,3.2 µM
"CC1(C)C(=O)N(C2C3CC4CC(C3)CC2C4)N1Cc1ccc(F)cc1C(F)(F)F (centres unmarked) [Example 48, 1-[4-fluoro-2-(trifluoromethyl)benzyl]-4,4-dimethyl-2-(adamantan-2-yl)-1,2-diazetidin-3-one]",0.5 µM,0.031 µM,> 30 µM
"CCc1ccccc1CN1N(C2C3CC4CC(C3)CC2C4)C(=O)C1(C)C (centres unmarked) [Example 50, 1-(2-ethylbenzyl)-4,4-dimethyl-2-(adamantan-2-yl)-1,2-diazetidin-3-one]",0.16 µM,0.042 µM,6.6 µM
"CC1(C)C(=O)N(C2C3CC4CC(C3)CC2C4)N1Cc1ccc(Cl)cc1Cl (centres unmarked) [Example 52, 1-(2,4-dichlorobenzyl)-4,4-dimethyl-2-(adamantan-2-yl)-1,2-diazetidin-3-one]",0.16 µM,0.078 µM,9.5 µM
"CSc1ccccc1CN1N(C2C3CC4CC(C3)CC2C4)C(=O)C1(C)C (centres unmarked) [Example 60, 4,4-dimethyl-1-[2-(methylthio)benzyl]-2-(adamantan-2-yl)-1,2-diazetidin-3-one]",0.15 µM,0.0082 µM,1.1 µM
"CC1(C)C(=O)N(C2CCCCCCC2)N1Cc1cccc(Cl)c1Cl [Example 74, 2-cyclooctyl-1-(2,3-dichlorobenzyl)-4,4-dimethyl-1,2-diazetidin-3-one]",0.13 µM,0.046 µM,3 to 30 µM
"CC1(C)C(=O)N(C2CCCCCCC2)N1Cc1ccc(F)cc1Cl [Example 76, 1-(2-chloro-4-fluorobenzyl)-2-cyclooctyl-4,4-dimethyl-1,2-diazetidin-3-one]",0.14 µM,0.031 µM,4.8 µM
"CC1(C)C(=O)N(C2CCCCCCC2)N1Cc1cc(F)ccc1Cl [Example 77, 1-(2-chloro-5-fluorobenzyl)-2-cyclooctyl-4,4-dimethyl-1,2-diazetidin-3-one]",0.092 µM,0.016 µM,2 µM
"Cc1ccc(C)c(C(=O)N2N(C3C4CC5CC(C4)CC3C5)C(=O)C2(C)C)c1 (centres unmarked) [Example 161, 1-[(2,5-dimethylphenyl)carbonyl]-4,4-dimethyl-2-(adamantan-2-yl)-1,2-diazetidin-3-one]",0.23 µM,0.5 µM,> 30 µM
"CC1(C)C(=O)N(C2C3CC4CC(C3)CC2C4)N1c1ccccc1[N+](=O)[O-] (centres unmarked) [Example 188, 4,4-dimethyl-1-(2-nitrophenyl)-2-(adamantan-2-yl)-1,2-diazetidin-3-one]",0.76 µM,0.082 µM,> 30 µM
"CC1(C)C(=O)N(C2C3CC4CC(C3)CC2C4)N1c1cccc(Cl)c1Cl (centres unmarked) [Example 206, 1-(2,3-dichlorophenyl)-4,4-dimethyl-2-(adamantan-2-yl)-1,2-diazetidin-3-one]",0.44 µM,0.0061 µM,3 to 30 µM
"CC1(C)C(=O)N(C2C3CC4CC(C3)CC2C4)N1c1cccc2ccccc12 (centres unmarked) [Example 212, 4,4-dimethyl-1-(naphthalen-1-yl)-2-(adamantan-2-yl)-1,2-diazetidin-3-one]",0.089 µM,0.032 µM,3 to 30 µM
"CC1(C)C(=O)N(C2C3CC4CC(C3)CC2C4)N1c1ccc(O)cc1 (centres unmarked) [Example 215, 4,4-dimethyl-1-(4-hydroxyphenyl)-2-(adamantan-2-yl)-1,2-diazetidin-3-one]",0.54 µM,0.023 µM,4.5 µM
"COCOc1ccccc1N1N(C2C3CC4CC(C3)CC2C4)C(=O)C1(C)C (centres unmarked) [Example 218, 1-[2-(methoxymethoxy)phenyl]-4,4-dimethyl-2-(adamantan-2-yl)-1,2-diazetidin-3-one]",0.57 µM,0.81 µM,> 30 µM
"CC1(C)C(=O)N(C2CCCCCCC2)N1c1cccc(Cl)c1Cl [Example 221, 2-cyclooctyl-1-(2,3-dichlorophenyl)-4,4-dimethyl-1,2-diazetidin-3-one]",0.29 µM,0.023 µM,3 to 30 µM
"CC1(C)C(=O)N(C2CCCCCCC2)N1c1cccc2ccccc12 [Example 222, 2-cyclooctyl-4,4-dimethyl-1-(naphthalen-1-yl)-1,2-diazetidin-3-one]",0.087 µM,0.019 µM,5.5 µM
"CC1(C)C(=O)N([C@H]2C3CC4CC2C[C@](O)(C4)C3)N1c1ccccc1Cl [Example 227, trans-1-(2-chlorophenyl)-2-(5-hydroxyadamantan-2-yl)-4,4-dimethyl-1,2-diazetidin-3-one]",0.95 µM,0.023 µM,3 to 30 µM
"COc1ccccc1N1N([C@H]2C3CC4CC2C[C@](Cl)(C4)C3)C(=O)C1(C)C [Example 250, trans-2-(5-chloroadamantan-2-yl)-1-(2-methoxyphenyl)-4,4-dimethyl-1,2-diazetidin-3-one]",0.13 µM,0.042 µM,> 30 µM
"CC1(C)C(=O)N([C@H]2C3CC4CC2C[C@](Cl)(C4)C3)N1c1cccc(Cl)c1Cl [Example 251, trans-2-(5-chloroadamantan-2-yl)-1-(2,3-dichlorophenyl)-4,4-dimethyl-1,2-diazetidin-3-one]",0.61 µM,0.03 µM,3 to 30 µM
"CC1(C)C(=O)N([C@H]2C3CC4CC2C[C@](Cl)(C4)C3)N1c1ccccc1O [Example 253, trans-2-(5-chloroadamantan-2-yl)-1-(2-hydroxyphenyl)-4,4-dimethyl-1,2-diazetidin-3-one]",0.15 µM,0.013 µM,3 to 30 µM
"CC1(C)C(=O)N(C2C3CC4CC(C3)CC2C4)N1/C=C/c1ccccc1 (centres unmarked) [Example 265, 4,4-dimethyl-1-[(E)-2-phenylethenyl]-2-(adamantan-2-yl)-1,2-diazetidin-3-one]",–,0.036 µM,19 µM
